Assay results from PubChem BioAssay (NCI).
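Results reflect a 48-hour exposure of cells in 96-well plates to compound at five concentrations. GI50 marks 50% less growth. Definition used: TGI = concentration required for complete inhibition of growth.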

Experiments:
Experiment in all cases: growth of human tumour cells (NCI), 48 h
PC-3 prostate = system: PC-3 prostate
SN12C renal = system: SN12C renal
HCC-2998 colon = system: HCC-2998 colon
COLO 205 colon = system: COLO 205 colon
SK-MEL-2 melanoma = system: SK-MEL-2 melanoma
SW-620 colon = system: SW-620 colon
SK-MEL-28 melanoma = system: SK-MEL-28 melanoma
UACC-62 melanoma = system: UACC-62 melanoma
CAKI-1 renal = system: CAKI-1 renal
UACC-257 melanoma = system: UACC-257 melanoma
OVCAR-8 ovarian = system: OVCAR-8 ovarian
UO-31 renal = system: UO-31 renal
NCI-H460 lung = system: NCI-H460 lung
786-0 renal = system: 786-0 renal
MDA-MB-435 = system: MDA-MB-435
T-47D breast = system: T-47D breast
OVCAR-5 ovarian = system: OVCAR-5 ovarian
SF-268 CNS = system: SF-268 CNS
HOP-62 NSCLC = system: HOP-62 NSCLC
HOP-92 NSCLC = system: HOP-92 NSCLC
MALME-3M melanoma = system: MALME-3M melanoma
DU-145 prostate = system: DU-145 prostate
OVCAR-4 ovarian = system: OVCAR-4 ovarian
M14 melanoma = system: M14 melanoma
RPMI-8226 leukemia = system: RPMI-8226 leukemia
OVCAR-3 ovarian = system: OVCAR-3 ovarian
SNB-75 CNS = system: SNB-75 CNS
ACHN renal = system: ACHN renal
A498 renal = system: A498 renal
SF-295 CNS = system: SF-295 CNS
NCI-H522 lung = system: NCI-H522 lung
KM12 colon = system: KM12 colon
HCT-15 colon = system: HCT-15 colon
RXF 393 renal = system: RXF 393 renal
TK-10 renal = system: TK-10 renal
U251 CNS = system: U251 CNS
NCI/ADR-RES ovarian = system: NCI/ADR-RES ovarian
CCRF-CEM leukemia = system: CCRF-CEM leukemia
BT-549 breast = system: BT-549 breast
NCI-H23 lung = system: NCI-H23 lung
A549 NSCLC = system: A549 NSCLC
MOLT-4 leukemia = system: MOLT-4 leukemia
EKVX NSCLC = system: EKVX NSCLC
HL-60(TB) leukemia = system: HL-60(TB) leukemia
HT29 colon = system: HT29 colon
K-562 leukemia = system: K-562 leukemia
SF-539 CNS = system: SF-539 CNS
LOX IMVI melanoma = system: LOX IMVI melanoma
HS 578T breast = system: HS 578T breast
MCF7 breast = system: MCF7 breast
SK-OV-3 ovarian = system: SK-OV-3 ovarian
IGROV1 ovarian = system: IGROV1 ovarian
SNB-19 CNS = system: SNB-19 CNS
SR leukemia = system: SR leukemia
NCI-H226 lung = system: NCI-H226 lung
MDA-MB-231 breast = system: MDA-MB-231 breast
SK-MEL-5 melanoma = system: SK-MEL-5 melanoma
HCT-116 colon = system: HCT-116 colon

`CC(=O)c1c(Nc2cccc(F)c2)[nH]c2c(Cl)cc(Cl)c(Cl)c2c1=O` showed a GI50 (PC-3 prostate) of 257 nM, a TGI (PC-3 prostate) of 17600 nM and a GI50 (SN12C renal) of 289 nM. The GI50 (HCC-2998 colon) was 333 nM, the TGI (HCC-2998 colon) was > 100000 nM and the GI50 (COLO 205 colon) was 440 nM. It also gave a TGI (COLO 205 colon) of 2480 nM, a GI50 (SK-MEL-2 melanoma) of 292 nM and a TGI (SK-MEL-2 melanoma) of 1290 nM. For the same compound, the GI50 (SW-620 colon) was 366 nM, the TGI (SW-620 colon) was > 100000 nM and the GI50 (SK-MEL-28 melanoma) was 377 nM. It also gave a TGI (SK-MEL-28 melanoma) of 4830 nM, a GI50 (UACC-62 melanoma) of 253 nM and a TGI (UACC-62 melanoma) of 793 nM. The GI50 (CAKI-1 renal) was 259 nM, the TGI (CAKI-1 renal) was 1830 nM and the GI50 (UACC-257 melanoma) was 363 nM. For the same compound, the TGI (UACC-257 melanoma) was 3150 nM, the GI50 (OVCAR-8 ovarian) was 363 nM and the TGI (OVCAR-8 ovarian) was > 100000 nM. The GI50 (UO-31 renal) was 216 nM, the TGI (UO-31 renal) was 5940 nM and the GI50 (NCI-H460 lung) was 360 nM. For the same compound, the TGI (NCI-H460 lung) was > 100000 nM, the GI50 (786-0 renal) was 471 nM and the TGI (786-0 renal) was > 100000 nM. The GI50 (MDA-MB-435) was 425 nM, the TGI (MDA-MB-435) was 8550 nM and the GI50 (T-47D breast) was 288 nM. The GI50 (OVCAR-5 ovarian) was 1220 nM, the TGI (OVCAR-5 ovarian) was > 100000 nM and the GI50 (SF-268 CNS) was 333 nM. For the same compound, the TGI (SF-268 CNS) was > 100000 nM, the GI50 (HOP-62 NSCLC) was 418 nM and the TGI (HOP-62 NSCLC) was 11000 nM. For the same compound, the GI50 (HOP-92 NSCLC) was 88.4 nM, the TGI (HOP-92 NSCLC) was 477 nM and the GI50 (MALME-3M melanoma) was 264 nM. The TGI (MALME-3M melanoma) was 1020 nM, the GI50 (DU-145 prostate) was 447 nM and the TGI (DU-145 prostate) was > 100000 nM. The GI50 (OVCAR-4 ovarian) was 361 nM, the TGI (OVCAR-4 ovarian) was > 100000 nM and the GI50 (M14 melanoma) was 366 nM. It also gave a TGI (M14 melanoma) of 7130 nM, a GI50 (RPMI-8226 leukemia) of 232 nM and a TGI (RPMI-8226 leukemia) of 2180 nM. The GI50 (OVCAR-3 ovarian) was 299 nM, the TGI (OVCAR-3 ovarian) was > 100000 nM and the GI50 (SNB-75 CNS) was 508 nM. The TGI (SNB-75 CNS) was > 22000 nM, the GI50 (ACHN renal) was 411 nM and the TGI (ACHN renal) was > 28600 nM. It also gave a GI50 (A498 renal) of 137 nM, a TGI (A498 renal) of 611 nM and a GI50 (SF-295 CNS) of 336 nM. The TGI (SF-295 CNS) was 1810 nM, the GI50 (NCI-H522 lung) was 289 nM and the TGI (NCI-H522 lung) was > 100000 nM. It also gave a GI50 (KM12 colon) of 346 nM, a GI50 (HCT-15 colon) of 296 nM and a TGI (HCT-15 colon) of 2230 nM. It also gave a GI50 (RXF 393 renal) of 326 nM, a TGI (RXF 393 renal) of 1950 nM and a GI50 (TK-10 renal) of 554 nM. For the same compound, the TGI (TK-10 renal) was > 100000 nM, the GI50 (U251 CNS) was 270 nM and the TGI (U251 CNS) was > 100000 nM. The GI50 (NCI/ADR-RES ovarian) was 297 nM, the TGI (NCI/ADR-RES ovarian) was 9890 nM and the GI50 (CCRF-CEM leukemia) was 346 nM. For the same compound, the TGI (CCRF-CEM leukemia) was > 100000 nM, the GI50 (BT-549 breast) was 457 nM and the TGI (BT-549 breast) was 8310 nM. The GI50 (NCI-H23 lung) was 262 nM, the TGI (NCI-H23 lung) was 1940 nM and the GI50 (A549 NSCLC) was 479 nM. For the same compound, the TGI (A549 NSCLC) was > 100000 nM, the GI50 (MOLT-4 leukemia) was 356 nM and the GI50 (EKVX NSCLC) was 333 nM. The TGI (EKVX NSCLC) was > 100000 nM, the GI50 (HL-60(TB) leukemia) was 337 nM and the TGI (HL-60(TB) leukemia) was 1540 nM. The GI50 (HT29 colon) was 387 nM, the TGI (HT29 colon) was > 100000 nM and the GI50 (K-562 leukemia) was 307 nM. The TGI (K-562 leukemia) was > 100000 nM, the GI50 (SF-539 CNS) was 369 nM and the GI50 (LOX IMVI melanoma) was 487 nM. For the same compound, the TGI (LOX IMVI melanoma) was 12800 nM, the GI50 (HS 578T breast) was 278 nM and the TGI (HS 578T breast) was > 100000 nM. The GI50 (MCF7 breast) was 309 nM, the TGI (MCF7 breast) was > 100000 nM and the GI50 (SK-OV-3 ovarian) was 263 nM. The TGI (SK-OV-3 ovarian) was 4860 nM, the GI50 (IGROV1 ovarian) was 440 nM and the TGI (IGROV1 ovarian) was > 100000 nM. The GI50 (SNB-19 CNS) was 384 nM, the TGI (SNB-19 CNS) was > 100000 nM and the GI50 (SR leukemia) was 697 nM. The TGI (SR leukemia) was > 100000 nM, the GI50 (NCI-H226 lung) was 343 nM and the TGI (NCI-H226 lung) was 2930 nM. The GI50 (MDA-MB-231 breast) was 259 nM, the TGI (MDA-MB-231 breast) was 1940 nM and the GI50 (SK-MEL-5 melanoma) was 184 nM. The TGI (SK-MEL-5 melanoma) was 433 nM, the GI50 (HCT-116 colon) was 302 nM and the TGI (HCT-116 colon) was > 44100 nM.
